Measured values: ChEMBL document CHEMBL1129981 (J Med Chem, 1997)

Legend:
[1] = target: Sodium-dependent serotonin transporter (Rattus norvegicus, UniProt P31652); assay: Inhibition of uptake of [3H]5-HT in synaptosomes from rat cortex; format: functional, subcellular, Brain
[2] = target: T1, Adrenergic receptor alpha-2 (Rattus norvegicus, UniProt P22086+P19328+P22909); assay: Ability to displace [3H]rauwolscine from Alpha-2 adrenergic receptor in rat cortical membranes; format: cell membranes
T1 sequence (P22086 whole entry): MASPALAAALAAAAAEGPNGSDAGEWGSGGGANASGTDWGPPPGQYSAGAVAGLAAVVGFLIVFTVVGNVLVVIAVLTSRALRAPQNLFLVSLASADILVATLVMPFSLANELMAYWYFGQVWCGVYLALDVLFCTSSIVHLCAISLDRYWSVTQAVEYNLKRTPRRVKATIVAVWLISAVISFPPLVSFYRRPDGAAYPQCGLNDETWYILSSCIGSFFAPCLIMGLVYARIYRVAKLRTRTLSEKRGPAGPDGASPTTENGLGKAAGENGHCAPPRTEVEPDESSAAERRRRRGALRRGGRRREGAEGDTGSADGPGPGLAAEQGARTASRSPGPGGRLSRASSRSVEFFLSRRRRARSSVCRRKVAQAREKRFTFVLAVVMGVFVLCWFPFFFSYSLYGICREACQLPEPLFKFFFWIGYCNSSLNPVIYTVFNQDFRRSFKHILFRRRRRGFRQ
T1 sequence (P19328 whole entry): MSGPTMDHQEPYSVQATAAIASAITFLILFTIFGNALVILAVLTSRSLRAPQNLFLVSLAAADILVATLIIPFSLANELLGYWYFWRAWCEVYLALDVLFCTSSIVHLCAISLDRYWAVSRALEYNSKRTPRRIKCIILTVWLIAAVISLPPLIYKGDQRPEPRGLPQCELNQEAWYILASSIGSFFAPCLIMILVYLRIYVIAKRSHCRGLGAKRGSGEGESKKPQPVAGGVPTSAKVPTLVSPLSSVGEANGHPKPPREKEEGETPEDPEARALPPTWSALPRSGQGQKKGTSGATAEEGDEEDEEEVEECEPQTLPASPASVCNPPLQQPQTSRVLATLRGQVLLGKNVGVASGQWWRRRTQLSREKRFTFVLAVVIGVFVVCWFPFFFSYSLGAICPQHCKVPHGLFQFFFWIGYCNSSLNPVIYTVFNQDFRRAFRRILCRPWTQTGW
T1 sequence (P22909 whole entry): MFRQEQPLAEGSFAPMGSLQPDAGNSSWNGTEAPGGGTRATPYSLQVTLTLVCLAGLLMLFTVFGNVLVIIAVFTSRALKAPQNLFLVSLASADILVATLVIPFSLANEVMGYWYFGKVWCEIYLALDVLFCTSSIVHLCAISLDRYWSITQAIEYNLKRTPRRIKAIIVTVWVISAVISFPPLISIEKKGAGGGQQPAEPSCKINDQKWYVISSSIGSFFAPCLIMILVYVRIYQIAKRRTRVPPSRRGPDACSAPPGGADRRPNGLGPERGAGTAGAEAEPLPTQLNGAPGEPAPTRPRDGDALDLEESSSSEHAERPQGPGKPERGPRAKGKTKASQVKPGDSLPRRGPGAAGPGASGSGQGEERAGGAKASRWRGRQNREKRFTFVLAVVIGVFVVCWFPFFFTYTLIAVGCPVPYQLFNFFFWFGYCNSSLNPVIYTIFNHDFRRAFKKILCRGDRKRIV

Chain of Sodium-dependent serotonin transporter (P31652 whole entry): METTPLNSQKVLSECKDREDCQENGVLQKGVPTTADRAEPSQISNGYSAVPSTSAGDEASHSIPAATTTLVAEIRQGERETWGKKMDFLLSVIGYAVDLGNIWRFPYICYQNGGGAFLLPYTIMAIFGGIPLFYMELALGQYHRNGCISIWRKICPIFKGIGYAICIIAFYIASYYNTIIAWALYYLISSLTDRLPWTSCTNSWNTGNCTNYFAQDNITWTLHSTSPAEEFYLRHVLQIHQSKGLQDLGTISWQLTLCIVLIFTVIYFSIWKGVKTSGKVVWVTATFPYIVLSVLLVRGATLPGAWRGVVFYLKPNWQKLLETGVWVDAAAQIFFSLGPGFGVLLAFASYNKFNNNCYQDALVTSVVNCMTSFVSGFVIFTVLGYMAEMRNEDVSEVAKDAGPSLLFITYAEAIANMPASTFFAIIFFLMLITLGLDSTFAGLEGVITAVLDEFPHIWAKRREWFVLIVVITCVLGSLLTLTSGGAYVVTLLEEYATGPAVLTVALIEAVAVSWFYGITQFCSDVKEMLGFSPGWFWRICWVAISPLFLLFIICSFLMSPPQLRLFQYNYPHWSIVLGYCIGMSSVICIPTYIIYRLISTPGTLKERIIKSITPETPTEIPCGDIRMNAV

| SMILES | IC50 [1] [nM] | Ki [2] [nM] |
| --- | --- | --- |
| COc1ccc2c(c1)C(CN(C)CCc1ccc3c(c1)OCO3)CCC2 (stereo not drawn) | 1420 | 57.5 |
| CN(CCc1ccc2c(c1)OCO2)C[C@@H]1CCCc2c1ccc1c2OCC1 | 26.7 | 5.57 |
| COc1cccc2c1C(CN(C)CCc1ccc3c(c1)OCO3)CCC2 (stereo not drawn) | 1430 | 2.88 |
| CN(CCc1ccc2c(c1)OCO2)C[C@@H]1CCCc2c1ccc1ccoc21 | 101 | 4.88 |
| COc1cccc2c1CCC[C@H]2CN(C)CCc1ccc2c(c1)CCN2S(C)(=O)=O | 35 | 4.62 |
| CCN(CCc1ccc2c(c1)OCO2)C[C@@H]1CCCc2c(OC)cccc21 | 158 | 5.73 |
| CN(CCc1ccc2c(c1)OCO2)CC1CCCc2c(NS(C)(=O)=O)cccc21 (stereo not drawn) | 658 | 19 |
| CN(CCc1ccc2c(c1)OCO2)C[C@@H]1CC[C@H]2CCOc3cccc1c32 | 436 | 94.1 |
| COc1cccc2c1CCC[C@H]2CN(C)CCc1ccc2c(c1)CN(S(C)(=O)=O)C2 | 5.81 | 5.33 |
| CN(CCc1ccc2c(c1)OCO2)CC1CCCc2ccccc21 (stereo not drawn) | 1090 | 8.19 |
| COc1ccc2c(c1)CCCC2CN(C)CCc1ccc2c(c1)OCO2 (stereo not drawn) | 469 | 23.5 |
| COc1cccc2c1CCC[C@H]2CN(CCc1ccc2c(c1)OCO2)CC1CC1 | – | 54.3 |
| COc1cccc2c1CCC[C@H]2CN(CCc1ccc2c(c1)OCO2)C1CC1 | – | 266 |
| CN(CCc1ccc2c(c1)OCO2)CC1CCCc2c1ccc1c2OCO1 (stereo not drawn) | 60.3 | 11 |
| COc1ccc2c(c1OC)CCC[C@H]2CN(C)CCc1ccc2c(c1)OCO2 | 757 | 15.5 |
| COc1cccc2c1CCC[C@H]2CN(C)CCc1ccc2c(c1)CN(S(=O)(=O)C(F)(F)F)C2 | 59.8 | 142 |
| CN(CCc1ccc2c(c1)OCO2)C[C@@H]1CC[C@@H]2CCOc3cccc1c32 | 862 | 113 |
| COc1cccc2c1CCC[C@H]2CN(C)CCc1ccc2c(c1)CCN2S(=O)(=O)C(F)(F)F | 132 | 158 |
| C#CCN(CCc1ccc2c(c1)OCO2)C[C@@H]1CCCc2c(OC)cccc21 | – | 184 |
| CN(CCc1ccc2c(c1)OCO2)CC1CCCc2c(O)cccc21 (stereo not drawn) | 1240 | 7.54 |
| CSc1cccc2c1CCCC2CN(C)CCc1ccc2c(c1)OCO2 (stereo not drawn) | 117 | 21 |
| CCOc1cccc2c1CCC[C@H]2CN(C)CCc1ccc2c(c1)OCO2 | 198 | 1.86 |
| COc1cccc2c1CCC[C@H]2CNCCc1ccc2c(c1)OCO2 | 414 | 88.2 |
| COc1cccc2c1CCC[C@H]2CN(C)CCc1ccc2c(c1)N(S(=O)(=O)C(F)(F)F)CC2 | 183 | 125 |
| C1=C(CC2=NCCN2)CCc2ccccc21 [NAPAMEZOLE] | 887 | 4.17 |

Next, values leading:

| IC50 [1] [nM] | Ki [2] [nM] | SMILES |
| --- | --- | --- |
| 33.7 | 4.67 | COc1cccc2c1CCC[C@H]2CN(C)CCc1ccc2c(c1)CCS2(=O)=O |
| 17.6 | 2.78 | COc1cccc2c1CCC[C@H]2CN(C)CCc1ccc2occc2c1 |
| 19.4 | 4.51 | COc1cccc2c1CCC[C@H]2CN(C)CCc1ccc2nc(O)oc2c1 |
| 51 | 4.82 | COc1cccc2c1CCC[C@H]2CN(C)CCc1ccc2c(c1)C=CS2(=O)=O |
| 86.7 | 2.12 | COc1cccc2c1CCC[C@H]2CN(C)CCc1ccc2nc(C)sc2c1 |
| 24.3 | 2.65 | COc1cccc2c1CCC[C@H]2CN(C)CCc1ccc2c(c1)CCS2 |
| 42.8 | 9.27 | COc1cccc2c1CCC[C@H]2CN(C)CCc1ccc2nc(C)oc2c1 |
| 20.5 | 8.99 | COc1cccc2c1CCC[C@H]2CN(C)CCc1ccc2c(c1)CCC2 |
| 46.7 | 3.91 | COc1cccc2c1CCC[C@H]2CN(C)CCc1ccc2ncccc2c1 |
| 5.25 | 1.22 | COc1cccc2c1CCC[C@H]2CN(C)CCc1ccc2ncoc2c1 |
| 53.9 | 6.07 | COc1cccc2c1CCC[C@H]2CN(C)CCc1ccc2ccncc2c1 |
| 229 | 2.64 | COc1cccc2c1CCC[C@H]2CN(C)CCc1ccc2c(c1)COC2 |
| 1310 | 88.6 | COc1cccc2c1CCC[C@@H]2CN(C)CCc1ccc2c(c1)OCO2 |
| 38.9 | 5.35 | COc1cccc2c1CCC[C@H]2CN(C)CCc1ccc2c(c1)N(S(C)(=O)=O)CC2 |
| 68.3 | 7.5 | COc1cccc2c1CCC[C@H]2CN(C)CCc1ccc2oc(O)nc2c1 |
| 9.47 | 5.67 | COc1cccc2c1CCC[C@H]2CN(C)CCc1ccc2nc(N)sc2c1 |
| 79.1 | 11.7 | COc1cccc2c1CCC[C@H]2CN(C)CCc1ccc2c(c1)NCC2 |

| IC50 [1] [nM] | Ki [2] [nM] | SMILES |
| --- | --- | --- |
| 18.1 | 1.88 | COc1cccc2c1CCC[C@H]2CN(C)CCc1ccc2c(c1)OCC2 |
| 8.94 | 2.73 | COc1cccc2c1CCC[C@H]2CN(C)CCc1ccc2ncsc2c1 |
| 31.8 | 3.42 | COc1cccc2c1CCC[C@H]2CN(C)CCc1ccc2c(c1)CCN2 |
| 52.8 | 17.9 | COc1cccc2c1CCC[C@H]2CN(C)CCc1ccc2sccc2c1 |
| 38.2 | 5.45 | COc1cccc2c1CCC[C@H]2CN(C)CCc1ccc2nc(Cl)sc2c1 |
| 11.6 | 5.99 | COc1cccc2c1CCC[C@H]2CN(C)CCc1ccc2c(c1)CNC2 |
| 12.7 | 1.7 | COc1cccc2c1CCC[C@H]2CN(C)CCc1ccc2c(c1)OCO2 |
| 20.6 | 6.71 | COc1cccc2c1CCCC2CN(C)CCc1ccc2c(c1)OCO2 (stereo not drawn) |
| 22.2 | 4.91 | COc1cccc2c1CCC[C@H]2CN(C)CCc1ccc2c(c1)CC(=O)N2 |
| 16.3 | 10.8 | COc1cccc2c1CCC[C@H]2CN(C)CCc1ccc2[nH]c(O)nc2c1 |
| 11.3 | 5.21 | COc1cccc2c1CCC[C@H]2CN(C)CCc1ccc2[nH]cnc2c1 |
| 14.6 | 1.76 | COc1cccc2c1CCC[C@H]2CN(C)CCc1ccc2c(c1)CCO2 |
| 44.4 | 1.81 | COc1cccc2c1CCC[C@H]2CN(C)CCc1ccc2nccnc2c1 |
| 16.7 | 1.77 | COc1cccc2c1CCC[C@H]2CN(C)CCc1ccc2ocnc2c1 |
| 18.1 | 6.79 | COc1cccc2c1CCC[C@H]2CN(C)CCc1ccc2cccnc2c1 |
| 6.67 | 1.78 | COc1cccc2c1CCC[C@H]2CN(C)CCc1ccc2c(c1)CS(=O)(=O)C2 |
